Activity calls are given as the source filed them. The calls are words filed in the database; no cut-off is given here. Bridge positions count the residues as written; N and C are the ends. Square brackets hold non-standard residues; d marks the D form. Peptide text beside a SMILES is read from it. Bip = N[C@@H](Cc1ccc(-c2ccccc2)cc1)C(=O)O
Assays:
[1] = molecular target: Serine protease 1 (Homo sapiens) (UniProt P07477); assay: Inhibition of beta-trypsin (unknown origin) at 25 nM using Bz-FVRpNA substrate by spectrophotometry method
Sequence of Serine protease 1 (Homo sapiens) (P07477 whole entry): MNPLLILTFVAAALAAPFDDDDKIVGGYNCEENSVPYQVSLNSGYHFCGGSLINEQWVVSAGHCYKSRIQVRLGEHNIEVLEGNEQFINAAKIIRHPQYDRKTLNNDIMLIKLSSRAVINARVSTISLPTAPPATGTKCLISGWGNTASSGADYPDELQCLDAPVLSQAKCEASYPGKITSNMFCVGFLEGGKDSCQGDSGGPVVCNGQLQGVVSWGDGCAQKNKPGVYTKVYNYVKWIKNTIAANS

[2] = molecular target: Kallikrein-4 (Homo sapiens, UniProt Q9Y5K2); assay: Inhibition of KLK4 (unknown origin) expressed in Sf9 cells at 25 nM using FVQRpNA substrate by spectrophotometry method
Sequence of Kallikrein-4 (Q9Y5K2 whole entry): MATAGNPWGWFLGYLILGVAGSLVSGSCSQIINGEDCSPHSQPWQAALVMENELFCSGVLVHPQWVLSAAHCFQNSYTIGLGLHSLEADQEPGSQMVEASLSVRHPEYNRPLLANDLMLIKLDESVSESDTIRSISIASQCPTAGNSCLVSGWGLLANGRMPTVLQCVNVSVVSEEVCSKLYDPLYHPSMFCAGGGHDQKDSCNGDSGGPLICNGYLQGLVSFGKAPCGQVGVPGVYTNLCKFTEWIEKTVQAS

[3] = molecular target: Coagulation factor IX (Homo sapiens) (UniProt P00740); assay: Inhibition of factor 9a-beta (unknown origin) at 25 uM using Ac-QGRpNA substrate by spectrophotometry method
Sequence of Coagulation factor IX (Homo sapiens) (P00740 47-191 limits assumed): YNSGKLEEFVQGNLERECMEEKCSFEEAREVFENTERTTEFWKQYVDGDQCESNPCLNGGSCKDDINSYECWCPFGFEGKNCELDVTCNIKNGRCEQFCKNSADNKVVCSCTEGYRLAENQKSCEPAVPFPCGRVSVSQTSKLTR
Sequence of Coagulation factor IX (Homo sapiens) (P00740 227-461 limits assumed): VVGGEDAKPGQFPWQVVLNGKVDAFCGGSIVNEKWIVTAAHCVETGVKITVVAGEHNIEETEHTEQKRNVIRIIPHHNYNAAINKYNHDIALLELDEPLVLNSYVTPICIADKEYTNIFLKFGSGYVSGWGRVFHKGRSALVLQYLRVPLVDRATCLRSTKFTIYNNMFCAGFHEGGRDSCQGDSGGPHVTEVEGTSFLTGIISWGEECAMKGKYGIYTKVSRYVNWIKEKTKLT

[4] = molecular target: Kallikrein-5 (Homo sapiens) (UniProt Q9Y337); assay: Inhibition of KLK5 (unknown origin) expressed in Pichia pastoris X33 at 50 nM using Ac-YRSR-pNA by spectrophotometry method
Sequence of Kallikrein-5 (Homo sapiens) (Q9Y337 whole entry): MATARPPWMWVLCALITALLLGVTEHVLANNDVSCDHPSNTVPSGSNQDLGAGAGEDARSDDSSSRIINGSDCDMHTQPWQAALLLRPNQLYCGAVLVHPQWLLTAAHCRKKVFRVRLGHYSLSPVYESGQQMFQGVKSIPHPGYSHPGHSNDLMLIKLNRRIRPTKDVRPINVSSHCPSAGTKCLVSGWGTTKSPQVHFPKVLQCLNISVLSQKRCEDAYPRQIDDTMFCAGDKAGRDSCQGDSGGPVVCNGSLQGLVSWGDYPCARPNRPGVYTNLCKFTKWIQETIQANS

[5] = molecular target: Prothrombin (Homo sapiens, UniProt P00734); assay: Inhibition of alpha-thrombin (unknown origin) at 25 uM using Ac-ATPRpNA substrate by spectrophotometry method
[6] = organism: Homo sapiens; assay: Inhibition of alpha chymotrypsin (unknown origin) at 25 uM using Ac-GRPY-pNA by spectrophotometry method
[7] = molecular target: Kallikrein-7 (Homo sapiens, UniProt P49862); assay: Inhibition of KLK7 (unknown origin) expressed in Pichia pastoris X33 at 200 nM using KHLY-pNA substrate by spectrophotometry method
Sequence of Kallikrein-7 (P49862 30-253 limits assumed): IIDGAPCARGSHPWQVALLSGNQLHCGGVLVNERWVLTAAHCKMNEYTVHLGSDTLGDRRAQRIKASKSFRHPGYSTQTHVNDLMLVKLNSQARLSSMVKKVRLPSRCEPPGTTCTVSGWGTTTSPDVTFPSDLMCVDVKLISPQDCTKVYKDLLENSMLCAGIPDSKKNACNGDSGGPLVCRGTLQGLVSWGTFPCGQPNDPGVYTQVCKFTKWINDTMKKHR

[8] = molecular target: Plasminogen (Homo sapiens, UniProt P00747); assay: Inhibition of plasmin (unknown origin) at 50 uM using Ac-RM(O2)YRpNA substrate by spectrophotometry method
Sequence of Plasminogen (P00747 97-580 limits assumed): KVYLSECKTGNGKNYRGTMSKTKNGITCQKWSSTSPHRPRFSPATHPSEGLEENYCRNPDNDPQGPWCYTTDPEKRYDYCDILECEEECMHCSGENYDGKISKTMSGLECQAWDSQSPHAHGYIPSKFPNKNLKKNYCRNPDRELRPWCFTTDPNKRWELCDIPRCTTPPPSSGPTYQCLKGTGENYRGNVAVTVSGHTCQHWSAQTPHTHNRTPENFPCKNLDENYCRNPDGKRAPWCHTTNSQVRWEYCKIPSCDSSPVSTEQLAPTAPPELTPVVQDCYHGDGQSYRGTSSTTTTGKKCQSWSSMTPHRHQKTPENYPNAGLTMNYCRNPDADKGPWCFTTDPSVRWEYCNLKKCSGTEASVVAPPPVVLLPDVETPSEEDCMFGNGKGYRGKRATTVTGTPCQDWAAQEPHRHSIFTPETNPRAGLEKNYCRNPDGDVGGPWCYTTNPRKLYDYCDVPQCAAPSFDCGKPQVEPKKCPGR
Sequence of Plasminogen (P00747 581-810 limits assumed): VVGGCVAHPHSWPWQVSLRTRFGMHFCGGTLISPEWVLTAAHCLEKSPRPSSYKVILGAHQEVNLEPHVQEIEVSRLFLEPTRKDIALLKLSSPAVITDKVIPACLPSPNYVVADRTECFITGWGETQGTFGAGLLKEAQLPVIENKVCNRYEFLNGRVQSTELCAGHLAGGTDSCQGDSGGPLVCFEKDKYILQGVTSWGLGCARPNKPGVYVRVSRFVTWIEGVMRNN

[9] = molecular target: Coagulation factor XI (Homo sapiens) (UniProt P03951); assay: Inhibition of factor 11a (unknown origin) at 10 uM using Bz-FVRpNA substrate by spectrophotometry method
Sequence of Coagulation factor XI (Homo sapiens) (P03951 19-387 limits assumed): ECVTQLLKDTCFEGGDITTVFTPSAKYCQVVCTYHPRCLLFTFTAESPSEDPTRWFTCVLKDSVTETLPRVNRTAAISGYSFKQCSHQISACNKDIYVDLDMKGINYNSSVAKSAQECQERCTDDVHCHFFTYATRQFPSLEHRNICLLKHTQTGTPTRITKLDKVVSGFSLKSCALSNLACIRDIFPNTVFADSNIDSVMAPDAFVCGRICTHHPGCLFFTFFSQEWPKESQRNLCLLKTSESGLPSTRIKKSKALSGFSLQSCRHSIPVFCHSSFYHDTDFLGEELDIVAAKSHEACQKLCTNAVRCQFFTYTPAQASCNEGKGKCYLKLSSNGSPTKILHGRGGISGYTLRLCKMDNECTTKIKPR
Sequence of Coagulation factor XI (Homo sapiens) (P03951 388-625 limits assumed): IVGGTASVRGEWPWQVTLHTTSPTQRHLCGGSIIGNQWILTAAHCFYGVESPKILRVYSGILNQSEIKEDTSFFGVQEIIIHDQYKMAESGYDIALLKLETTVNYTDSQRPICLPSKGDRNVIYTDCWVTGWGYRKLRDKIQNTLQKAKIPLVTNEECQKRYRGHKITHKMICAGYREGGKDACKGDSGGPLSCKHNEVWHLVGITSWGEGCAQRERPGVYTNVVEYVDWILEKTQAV

[10] = molecular target: T1, Suppressor of tumorigenicity 14 protein (Homo sapiens) (UniProt Q9Y5Y6); assay: Inhibition of matriptase (unknown origin) at 10 uM using Ac-RQFRpNA substrate by spectrophotometry method
T1 sequence (whole entry): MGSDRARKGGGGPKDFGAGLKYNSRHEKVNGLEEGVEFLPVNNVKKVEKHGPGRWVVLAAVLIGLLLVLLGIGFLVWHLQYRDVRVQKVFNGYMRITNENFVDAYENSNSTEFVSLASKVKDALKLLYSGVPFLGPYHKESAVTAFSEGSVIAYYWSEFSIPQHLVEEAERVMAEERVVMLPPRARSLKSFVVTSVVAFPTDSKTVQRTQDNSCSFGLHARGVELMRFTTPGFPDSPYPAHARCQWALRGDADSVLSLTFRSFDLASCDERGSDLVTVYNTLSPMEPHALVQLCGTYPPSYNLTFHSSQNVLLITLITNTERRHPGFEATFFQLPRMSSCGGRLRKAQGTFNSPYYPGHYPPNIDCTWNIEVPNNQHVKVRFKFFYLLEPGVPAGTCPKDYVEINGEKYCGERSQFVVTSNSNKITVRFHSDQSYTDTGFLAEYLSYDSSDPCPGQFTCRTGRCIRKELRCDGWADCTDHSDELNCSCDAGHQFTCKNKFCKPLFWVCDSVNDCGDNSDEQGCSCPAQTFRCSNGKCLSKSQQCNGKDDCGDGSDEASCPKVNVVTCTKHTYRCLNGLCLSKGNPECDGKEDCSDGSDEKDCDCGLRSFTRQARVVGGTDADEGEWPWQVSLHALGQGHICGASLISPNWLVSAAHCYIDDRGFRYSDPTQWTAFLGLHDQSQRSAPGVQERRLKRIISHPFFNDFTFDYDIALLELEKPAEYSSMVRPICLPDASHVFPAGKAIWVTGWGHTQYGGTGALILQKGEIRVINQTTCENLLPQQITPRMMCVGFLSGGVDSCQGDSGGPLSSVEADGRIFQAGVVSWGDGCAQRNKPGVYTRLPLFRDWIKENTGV

[11] = molecular target: T2, Coagulation factor XII (Homo sapiens) (UniProt P00748); assay: Inhibition of factor 12a-alpha (unknown origin) at 10 uM using Ac-QRFRpNA substrate by spectrophotometry method
T2 sequence (whole entry): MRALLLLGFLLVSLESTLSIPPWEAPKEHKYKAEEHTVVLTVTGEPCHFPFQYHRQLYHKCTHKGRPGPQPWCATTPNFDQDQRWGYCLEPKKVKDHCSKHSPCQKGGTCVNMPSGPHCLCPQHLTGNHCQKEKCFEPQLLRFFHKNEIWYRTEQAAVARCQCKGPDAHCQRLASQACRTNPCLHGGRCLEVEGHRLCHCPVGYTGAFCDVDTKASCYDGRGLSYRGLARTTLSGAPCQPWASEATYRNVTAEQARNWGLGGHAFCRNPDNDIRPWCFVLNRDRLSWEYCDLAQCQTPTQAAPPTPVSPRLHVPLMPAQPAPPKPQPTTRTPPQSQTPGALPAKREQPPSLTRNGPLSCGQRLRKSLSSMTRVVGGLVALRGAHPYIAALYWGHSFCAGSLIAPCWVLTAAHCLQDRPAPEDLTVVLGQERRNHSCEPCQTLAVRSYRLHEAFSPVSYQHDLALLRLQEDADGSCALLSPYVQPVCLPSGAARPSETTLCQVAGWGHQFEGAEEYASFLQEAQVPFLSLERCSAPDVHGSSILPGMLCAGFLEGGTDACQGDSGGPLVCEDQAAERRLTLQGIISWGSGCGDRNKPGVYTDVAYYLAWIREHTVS

SMILES | inhibition [1] | inhibition [2] | inhibition [4] | inhibition [6] [%] | further results
CC[C@H](C)[C@@H]1NC(=O)[C@@H]2CCCN2C(=O)[C@@H]2CCCN2C(=O)[C@H](CCC(=O)O)NC(=O)[C@H](CO)NC(=O)[C@H](CCCNC(=N)N)NC(=O)[C@H]([C@@H](C)O)NC(=O)[C@@H]2CSSC[C@H](NC1=O)C(=O)N[C@@H](CC(N)=O)C(=O)N1CCC[C@H]1C(=O)N[C@@H](CC(N)=O)C(=O)NCC(=O)N[C@@H]([C@@H](C)O)C(=O)N2 (cyclo(CNPNGTCTRSEPPI); disulfide 1-7) | inactive | inactive |  |  | inhibition [3]: 54%
CC[C@H](C)[C@@H]1NC(=O)[C@@H]2CCCN2C(=O)[C@@H]2CCCN2C(=O)[C@H](Cc2ccccc2)NC(=O)[C@H](CO)NC(=O)[C@H](CCCNC(=N)N)NC(=O)[C@H]([C@@H](C)O)NC(=O)[C@@H]2CSSC[C@H](NC1=O)C(=O)N[C@@H](CC(N)=O)C(=O)N1CCC[C@H]1C(=O)N[C@@H](CC(N)=O)C(=O)NCC(=O)N[C@@H]([C@@H](C)O)C(=O)N2 (cyclo(CNPNGTCTRSFPPI); disulfide 1-7) |  | Active | Active | 52 | inhibition [5]: 41%
CC[C@H](C)[C@@H]1NC(=O)[C@@H]2CCCN2C(=O)[C@@H]2CCCN2C(=O)[C@H](Cc2cnc[nH]2)NC(=O)[C@H](CO)NC(=O)[C@H](CCCNC(=N)N)NC(=O)[C@H]([C@@H](C)O)NC(=O)[C@@H]2CSSC[C@H](NC1=O)C(=O)N[C@@H](CC(N)=O)C(=O)N1CCC[C@H]1C(=O)N[C@@H](CC(N)=O)C(=O)NCC(=O)N[C@@H]([C@@H](C)O)C(=O)N2 (cyclo(CNPNGTCTRSHPPI); disulfide 1-7) |  |  | inactive |  | inhibition [7]: Active
CC[C@H](C)[C@@H]1NC(=O)[C@@H]2CCCN2C(=O)[C@@H]2CCCN2C(=O)[C@H](CCCCN)NC(=O)[C@H](CO)NC(=O)[C@H](CCCNC(=N)N)NC(=O)[C@H]([C@@H](C)O)NC(=O)[C@@H]2CSSC[C@H](NC1=O)C(=O)N[C@@H](CC(N)=O)C(=O)N1CCC[C@H]1C(=O)N[C@@H](CC(N)=O)C(=O)NCC(=O)N[C@@H]([C@@H](C)O)C(=O)N2 (cyclo(CNPNGTCTRSKPPI); disulfide 1-7) |  |  |  |  | inhibition [3]: 43%; inhibition [8]: 60%
CC[C@H](C)[C@@H]1NC(=O)[C@@H]2CCCN2C(=O)[C@@H]2CCCN2C(=O)[C@H](CCC(N)=O)NC(=O)[C@H](CO)NC(=O)[C@H](CCCNC(=N)N)NC(=O)[C@H]([C@@H](C)O)NC(=O)[C@@H]2CSSC[C@H](NC1=O)C(=O)N[C@@H](CC(N)=O)C(=O)N1CCC[C@H]1C(=O)N[C@@H](CC(N)=O)C(=O)NCC(=O)N[C@@H]([C@@H](C)O)C(=O)N2 (cyclo(CNPNGTCTRSQPPI); disulfide 1-7) |  |  | inactive |  | inhibition [7]: Active
CC[C@H](C)[C@@H]1NC(=O)[C@@H]2CCCN2C(=O)[C@@H]2CCCN2C(=O)[C@H](CO)NC(=O)[C@H](CO)NC(=O)[C@H](CCCNC(=N)N)NC(=O)[C@H]([C@@H](C)O)NC(=O)[C@@H]2CSSC[C@H](NC1=O)C(=O)N[C@@H](CC(N)=O)C(=O)N1CCC[C@H]1C(=O)N[C@@H](CC(N)=O)C(=O)NCC(=O)N[C@@H]([C@@H](C)O)C(=O)N2 (cyclo(CNPNGTCTRSSPPI); disulfide 1-7) |  |  | inactive |  | inhibition [7]: Active
CC[C@H](C)[C@@H]1NC(=O)[C@@H]2CCCN2C(=O)[C@@H]2CCCN2C(=O)[C@H](Cc2ccc(-c3ccccc3)cc2)NC(=O)[C@H](CO)NC(=O)[C@H](CCCNC(=N)N)NC(=O)[C@H]([C@@H](C)O)NC(=O)[C@@H]2CSSC[C@H](NC1=O)C(=O)N[C@@H](CC(N)=O)C(=O)N1CCC[C@H]1C(=O)N[C@@H](CC(N)=O)C(=O)NCC(=O)N[C@@H]([C@@H](C)O)C(=O)N2 (cyclo([Bip]PPICNPNGTCTRS); disulfide 5-11) |  | Active | Active |  | inhibition [11]: 80%

The next lines start with results.

inhibition [1] | inhibition [2] | inhibition [4] | inhibition [6] [%] | SMILES | further results
inactive |  |  |  | CC[C@H](C)[C@@H]1NC(=O)[C@@H]2CCCN2C(=O)[C@@H]2CCCN2C(=O)CNC(=O)[C@H](CO)NC(=O)[C@H](CCCNC(=N)N)NC(=O)[C@H]([C@@H](C)O)NC(=O)[C@@H]2CSSC[C@H](NC1=O)C(=O)N[C@@H](CC(N)=O)C(=O)N1CCC[C@H]1C(=O)N[C@@H](CC(N)=O)C(=O)NCC(=O)N[C@@H]([C@@H](C)O)C(=O)N2 (cyclo(CNPNGTCTRSGPPI); disulfide 1-7) | 
52% |  |  |  | CC[C@H](C)[C@@H]1NC(=O)[C@@H]2CCCN2C(=O)[C@@H]2CCCN2C(=O)[C@H](CC(C)C)NC(=O)[C@H](CO)NC(=O)[C@H](CCCNC(=N)N)NC(=O)[C@H]([C@@H](C)O)NC(=O)[C@@H]2CSSC[C@H](NC1=O)C(=O)N[C@@H](CC(N)=O)C(=O)N1CCC[C@H]1C(=O)N[C@@H](CC(N)=O)C(=O)NCC(=O)N[C@@H]([C@@H](C)O)C(=O)N2 (cyclo(CNPNGTCTRSLPPI); disulfide 1-7) | 
inactive |  |  |  | CC[C@H](C)[C@@H]1NC(=O)[C@@H]2CCCN2C(=O)[C@@H]2CCCN2C(=O)[C@@H]2CCCN2C(=O)[C@H](CO)NC(=O)[C@H](CCCNC(=N)N)NC(=O)[C@H]([C@@H](C)O)NC(=O)[C@@H]2CSSC[C@H](NC1=O)C(=O)N[C@@H](CC(N)=O)C(=O)N1CCC[C@H]1C(=O)N[C@@H](CC(N)=O)C(=O)NCC(=O)N[C@@H]([C@@H](C)O)C(=O)N2 (cyclo(CNPNGTCTRSPPPI); disulfide 1-7) | 
65% | Active |  | 57 | CC[C@H](C)[C@@H]1NC(=O)[C@@H]2CCCN2C(=O)[C@@H]2CCCN2C(=O)[C@H](CCCNC(=N)N)NC(=O)[C@H](CO)NC(=O)[C@H](CCCNC(=N)N)NC(=O)[C@H]([C@@H](C)O)NC(=O)[C@@H]2CSSC[C@H](NC1=O)C(=O)N[C@@H](CC(N)=O)C(=O)N1CCC[C@H]1C(=O)N[C@@H](CC(N)=O)C(=O)NCC(=O)N[C@@H]([C@@H](C)O)C(=O)N2 (cyclo(CNPNGTCTRSRPPI); disulfide 1-7) | inhibition [3]: 43%; inhibition [8]: 23%
75% | 92% |  | 76 | CC[C@H](C)[C@@H]1NC(=O)[C@@H]2CCCN2C(=O)[C@@H]2CCCN2C(=O)[C@H](C(C)C)NC(=O)[C@H](CO)NC(=O)[C@H](CCCNC(=N)N)NC(=O)[C@H]([C@@H](C)O)NC(=O)[C@@H]2CSSC[C@H](NC1=O)C(=O)N[C@@H](CC(N)=O)C(=O)N1CCC[C@H]1C(=O)N[C@@H](CC(N)=O)C(=O)NCC(=O)N[C@@H]([C@@H](C)O)C(=O)N2 (cyclo(CNPNGTCTRSVPPI); disulfide 1-7) | inhibition [9]: 65%; inhibition [10]: 54%; inhibition [11]: 80%; inhibition [8]: 25%
 |  | Active | 63 | CC[C@H](C)[C@@H]1NC(=O)[C@@H]2CCCN2C(=O)[C@@H]2CCCN2C(=O)[C@H](Cc2c[nH]c3ccccc23)NC(=O)[C@H](CO)NC(=O)[C@H](CCCNC(=N)N)NC(=O)[C@H]([C@@H](C)O)NC(=O)[C@@H]2CSSC[C@H](NC1=O)C(=O)N[C@@H](CC(N)=O)C(=O)N1CCC[C@H]1C(=O)N[C@@H](CC(N)=O)C(=O)NCC(=O)N[C@@H]([C@@H](C)O)C(=O)N2 (cyclo(CNPNGTCTRSWPPI); disulfide 1-7) | inhibition [11]: 87%

Reference: ChEMBL document CHEMBL3621201, “Improving the Selectivity of Engineered Protease Inhibitors: Optimizing the P2 Prime Residue Using a Versatile Cyclic Peptide Library” (J Med Chem, 2015)
